The values below come from US20120165319A1, “INHIBITORS OF INTERLEUKIN-1 BETA CONVERTING ENZYME” (VERTEX PHARMACEUTICALS INCORPORATED, priority 1995, published 2012).

Where two headings read alike, the source gives them in different places. Some results are limits rather than exact numbers.

Experiment [1] relates to IL-1β, human peripheral blood mononuclear cells (PBMC). The experiment can be described thus: PBMC cell assay: IL-1β assay with human PBMC or enriched adherent mononuclear cells, LPS-stimulated. It counts as cell-based. In outline:
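Buffy-coat human PBMC at 6×10^6 cells/ml, or adherent monocytes enriched by 1 h adherence (2.5−3.0×10^5 cells/well), are given 5–6 compound dilutions bracketing the ICE Ki (final DMSO 0.1%) plus LPS at a final 5 ng/ml. They are incubated 16–18 hr at 37 °C, 5% CO2, and supernatant mature IL-1β is measured by ELISA, with duplicate cultures and duplicate ELISAs.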

Experiment [2] deals with IL-1β production, LPS-challenged mice. Kind of experiment: In vivo acute assay for efficacy as anti-inflammatory agent: LPS-induced IL-1β production in mice. As to conditions: for Inhibition of IL-1β Production, compound administered 0 hr relative to LPS challenge / Inhibition of IL-1β Production, compound administered +1 hr relative to LPS challenge / Inhibition of IL-1β Production, compound administered −1 hr relative to LPS challenge / Inhibition of IL-1β Production, compound administered −2 hr relative to LPS challenge / inhibition at 50 mg/kg / percent inhibition of IL-1β production: LPS challenged mice, 50 mg/kg; for Inhibition of IL-1β Production, compound administered 0 hr relative to LPS challenge / Inhibition of IL-1β Production, compound administered +1 hr relative to LPS challenge / Inhibition of IL-1β Production, compound administered −1 hr relative to LPS challenge / Inhibition of IL-1β Production, compound administered −2 hr relative to LPS challenge: * = values obtained in subsequent assays (Table 4); for inhibition at 50 mg/kg: Mus musculus, po, read-out: percent inhibition of IL-1β production; for inhibition at 50 mg/kg / percent inhibition of IL-1β production: compound PO. The arrangement: species or system mouse. In short, it runs like this:
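CD1 mice (n=6) were challenged with LPS 20 mg/kg IP and given compound IP in olive oil:DMSO:ethanol (90:5:5) 1 h after LPS, or at the time of challenge for some analogs. Blood was taken 7 h after LPS and serum IL-1β was measured by ELISA. Oral gavage at 50 mg/kg was also tested.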

Where [3] appears, read: Homo sapiens, PBMC, * = values obtained upon reassay.
Setting [4] is: 0 h, administered 0 h relative to time of LPS challenge.
[5] abbreviates: 2 h, administered −2 h relative to time of LPS challenge.
[6] abbreviates: 1 h, administered +1 h relative to time of LPS challenge.

For the molecule `CCOC(=O)C[C@H](NC(=O)[C@@H]1CCCN2C(=O)CC[C@H](NC(=O)c3ccccc3)C(=O)N12)C(OCC)OCC` [Compound 2100b], the IC50 in experiment [1] (setting [3]) was > 20000 nM. Besides, in experiment [2] (PO), the “Inhibition of IL-1β Production, compound administered 0 hr relative to LPS challenge” value worked out at 47%; the “Inhibition of IL-1β Production, compound administered +1 hr relative to LPS challenge” value worked out at 26%; the “Inhibition of IL-1β Production, compound administered −1 hr relative to LPS challenge” value worked out at 0%; the “Inhibition of IL-1β Production, compound administered −2 hr relative to LPS challenge” value is 0%.

As to `O=C[C@H](CC(=O)O)NC(=O)[C@@H]1CCCN2C(=O)CC[C@H](NC(=O)c3cc(Cl)c(O)c(Cl)c3)C(=O)N12` [Compound 214k, [3S(1S,9S)]3-(9-(3,5-Dichloro-4-hydroxybenzoyl)amino-6,10-dioxo-1,2,3,4,7,8,9,10-octahydro-6H-pyridazino[1,2-a][1,2]diazepine-1-carboxamido)-4-oxobutanoic acid], the IC50 in experiment [1] (Homo sapiens, PBMC, Table 17) amounted to 500 nM. Also, the inhibition at 50 mg/kg in experiment [2] (setting [4]) came to 31%; in experiment [2] (setting [5]) it was 12%.

For `Cc1cc(C(=O)N[C@H]2CCC(=O)N3CCC[C@@H](C(=O)N[C@H](C=O)CC(=O)O)N3C2=O)cc(C)c1O` [Compound 214w], the midpoint of inhibition in experiment [1] (Table 17), the IC50, lay at 620 nM. Also, the results for the “percent inhibition of IL-1β production” value in experiment [2] (administered 0 h relative to time of LPS challenge) and in experiment [2] (administered −2 h relative to time of LPS challenge) were 91% and 11%, respectively.

`O=C[C@H](CC(=O)O)NC(=O)[C@@H]1CCCN2C(=O)CC[C@H](NC(=O)c3ccc4nc[nH]c4c3)C(=O)N12` [Compound 434]: the IC50 amounted to 1200 nM in experiment [1] (* = values obtained upon reassay) and 1600 nM in experiment [1] (setting [3]). Besides, in experiment [2] (% inhibition of IL-β production, LPS-challenged mice, IP, 50 mg/kg (Table 3)), the “IP % Inhibition” value amounted to 74%. Besides, the “POS Inhibition” value in experiment [2] (% inhibition of IL-β production, LPS-challenged mice, PO, 50 mg/kg (Table 3)) came out at 80%. In addition, the inhibition at 50 mg/kg in experiment [2] (setting [4]) is 63%; in experiment [2] (setting [6]), 80%; in experiment [2] (setting [5]), 0%.

In the case of `CC(C)OC1OC(=O)C[C@@H]1NC(=O)[C@@H]1CCCN2C(=O)CC[C@H](NC(=O)c3ccccc3)C(=O)N12` (stereo partly drawn) [Compound 2100a, [1S,9S(2RS,3S)]9-Benzoylamino-6,10-dioxo-1,2,3,4,7,8,9,10-octahydro-N-(2-isopropoxy-5-oxo-tetrahydro-furan-3-yl)-6H-pyridazino-[1,2-a][1,2]diazepine-1-carboxamide], the IC50 in experiment [1] (setting [3]) was determined as 1100 nM. Also, in experiment [2] (PO), the “Inhibition of IL-1β Production, compound administered 0 hr relative to LPS challenge” value is 67%; the “Inhibition of IL-1β Production, compound administered +1 hr relative to LPS challenge” value is listed as 58%; the “Inhibition of IL-1β Production, compound administered −1 hr relative to LPS challenge” value is 71%; the “Inhibition of IL-1β Production, compound administered −2 hr relative to LPS challenge” value is listed as 8%.

In experiment [1] (setting [3]), `CCOC1OC(=O)C[C@@H]1NC(=O)[C@@H]1CCCN2C(=O)CC[C@H](NC(=O)c3ccccc3)C(=O)N12` (stereo partly drawn) [Compound 2100e, [1S,9S(2RS,3S)]9-Benzoylamino-6,10-dioxo-1,2,3,4,7,8,9,10-octahydro-N-(2-ethoxy-5-oxo-tetrahydro-furan-3-yl)-6H-pyridazino[1,2-a][1,2]-diazepine-1-carboxamide] returned an IC50 of 800 nM. For the same molecule, in experiment [2] (PO), the “Inhibition of IL-1β Production, compound administered 0 hr relative to LPS challenge” value is reported as 94%; the “Inhibition of IL-1β Production, compound administered +1 hr relative to LPS challenge” value was 66%; the “Inhibition of IL-1β Production, compound administered −1 hr relative to LPS challenge” value came out at 54%; the “Inhibition of IL-1β Production, compound administered −2 hr relative to LPS challenge” value amounted to 49%.

Molecule `O=C1C[C@H](NC(=O)[C@@H]2CCCN3C(=O)CC[C@H](NC(=O)c4ccccc4)C(=O)N23)C(OCCc2ccccc2)O1` (mixture of isomers) [Compound 2100k, [1S,9S(2RS,3S)]9-Benzoylamino-6,10-dioxo-1,2,3,4,7,8,9,10-octahydro-N-(2-phenethyloxy-5-oxotetrahydrofuran-3-yl)-6H-pyridazino[1,2-a][1,2]diazepine-1-carboxamide] had an IC50 in experiment [1] (Homo sapiens, PBMC, Table 17) of 4000 nM. Besides, the inhibition at 50 mg/kg was 32% in experiment [2] (setting [4]); 72% in experiment [2] (setting [6]); 50% in experiment [2] (1 h, administered −1 h relative to time of LPS challenge); 30% in experiment [2] (setting [5]).

`CC(=O)N1C[C@H](NC(=O)c2cc(Cl)c(O)c(Cl)c2)C(=O)N(CC(=O)N[C@H](C=O)CC(=O)O)c2ccccc21` [Compound 656, (3S)-3-[(3S)-2-Oxo-3-(3,5-dichloro, 4-hydroxybenzoyl)amino-5-acetyl-2,3,4,5-tetrahydro-1H-1,5-benzodiazepine-1-acetylamino-]4-oxo-butyric acid] had a 50% inhibitory concentration (IC50) in experiment [1] (Homo sapiens, PBMC, Table 17) of 2100 nM. Moreover, the inhibition at 50 mg/kg turned out to be 16% in experiment [2] (setting [4]) and 31% in experiment [2] (setting [5]).

`CN(C)c1ccc(C(=O)N[C@H]2CCC(=O)N3CCC[C@@H](C(=O)N[C@H](C=O)CC(=O)O)N3C2=O)cc1` [Compound 471] gave an IC50 in experiment [1] (setting [3]) of 750 nM. For the same molecule, the results for the inhibition at 50 mg/kg in experiment [2] (setting [4]) and in experiment [2] (setting [5]) were 34% and 0%, respectively.

As to `COc1c(Cl)cc(C(=O)N[C@H]2CCC(=O)N3CCC[C@@H](C(=O)N[C@H](C=O)CC(=O)O)N3C2=O)cc1Cl` [Compound 214m], half-maximal inhibition in experiment [1] (Homo sapiens, PBMC, Table 17) (IC50) required 530 nM. Also, the inhibition at 50 mg/kg amounted to 17% in experiment [2] (setting [4]) and 0% in experiment [2] (setting [5]).

With `O=C1C[C@H](NC(=O)[C@@H]2CCCN3C(=O)CC[C@H](NC(=O)c4ccccc4)C(=O)N23)C(OCc2ccccc2)O1` (stereo partly drawn) [Compound 213e, [1S,9S(2RS,3S)]9-Benzoylamino-6,10-dioxo-1,2,3,4,7,8,9,10-octahydro-N-(2-benzyloxy-5-oxotetrahydrofuran-3-yl)-6H-pyridazino[1,2-a][1,2]-diazepine-1-carboxamide], the concentration for half-maximal inhibition (IC50) in experiment [1] (setting [3]) was 900 nM. In experiment [2] (PO), the “Inhibition of IL-1β Production, compound administered 0 hr relative to LPS challenge” value was 41%; the “Inhibition of IL-1β Production, compound administered +1 hr relative to LPS challenge” value is listed as 89%; the “Inhibition of IL-1β Production, compound administered −1 hr relative to LPS challenge” value is recorded as 48%; the “Inhibition of IL-1β Production, compound administered −2 hr relative to LPS challenge” value was 0%.

Regarding `CC(C)(C)OC(=O)C[C@@H](C=O)NC(=O)[C@@H]1CCCN2C(=O)CC[C@H](NC(=O)c3ccccc3)C(=O)N12` [Compound 302, [3S(1S,9S)3-(9-Benzoylamino-6,10-dioxo-1,2,3,4,7,8,9,10-octahydro-6H-pyriazino-[1,2-a][1,2]diazapine-1-carboxamido)-amino]-4-oxobutanoic acid tert-butyl ester], the IC50 in experiment [1] (setting [3]) was > 20000 nM. In experiment [2] (PO), the “Inhibition of IL-1β Production, compound administered 0 hr relative to LPS challenge” value is 21%; the “Inhibition of IL-1β Production, compound administered +1 hr relative to LPS challenge” value was determined as 26%; the “Inhibition of IL-1β Production, compound administered −1 hr relative to LPS challenge” value was determined as 27%; the “Inhibition of IL-1β Production, compound administered −2 hr relative to LPS challenge” value came out at 0%.

With `O=C[C@H](CC(=O)O)NC(=O)[C@@H]1CCCN2C(=O)CCN(NC(=O)c3ccc4c(c3)OCO4)C(=O)N12` [Compound 1015, [3S(4S)]3-[6,10-Dioxo-7-(3,4-methylenedioxybenzoylamino)-1,2,3,4,7,8,9,10-octahydro-6H-pyridazino[1,2-a][1,2,4]triazepine-4-carboxamido]-4-oxobutanoic acid], in experiment [1] (setting [3]), the 50% inhibitory concentration (IC50) turned out to be 2500 nM. The inhibition at 50 mg/kg in experiment [2] (setting [4]) amounted to 28%; in experiment [2] (setting [5]), 15%.

On to `O=C[C@H](CC(=O)O)NC(=O)[C@@H]1CCCN2C(=O)CCN(NS(=O)(=O)c3ccccc3)C(=O)N12` [Compound 1027, [3S(4S)]3-(6,10-Dioxo-1,2,3,4,7,8,9,10-octahydro-7-phenylsulphonylamino-6H-pyridazino[1,2-a][1,2,4]triazepine-4-carboxamido)-4-oxobutanoic acid], for which the IC50 in experiment [1] (setting [3]) was > 20000 nM.

Usually IC50 stands for the point on the concentration scale where inhibition reaches its midpoint. Broadly, the inhibition is the relative decrease from the control value, in per cent.
